The values below are quoted from earlier work in patent US6680310B2, “Methods for preventing antipsychotic-induced weight gain” (Corcept Therapeutics, Inc., priority 2001, dated 2004).

Structures are written as SMILES.

For the series the following is noted: in one study (Kawai, supra).

`CC#C[C@]1(O)CC[C@H]2[C@@H]3CCC4=CC(=O)CCC4=C3[C@@H](c3ccc(N(C)C)cc3)C[C@@]21C` [Mifepristone, 17-beta-hydroxy-11-beta-(4-dimethyl-aminophenyl)-17-alpha(1-propynyl)-estra-4,9-dien-3-one]: the “fraction of the daily dose excreted in the urine” value was “less than 0.5%”.
